{"source": "patent US7588907B2", "about": "“Ubiquitin mediated fluorescence complementation assay” (The Regents of the University of Michigan, priority 2005, dated 2009)", "origin": "cited, not measured here", "system": "Jun ubiquitinated by DCX^hDET1-hCOP1", "settings": "cells that overexpressed DCX^hDET1-hCOP1 E3 ligase", "note": "Residues, ends and D or L forms follow the SMILES beside them. *: point of attachment. Cbz = O=C(OCc1ccccc1)*"}
{"smiles": "CC(C)C[C@@H](C=O)NC(=O)[C@H](CC(C)C)NC(=O)[C@H](CC(C)C)NC(=O)OCc1ccccc1", "note": "[MG132] (Cbz-Leu-Leu-Leu-aldehyde)", "values": [{"measurement": "effect on Jun degradation", "value": "inhibited"}]}
